In patent publication US20090143279A1 (priority 2007, published 2009):
Several values for one entry are separate records, joined by “and”; a condition that tells them apart may be missing. Identical values can stand only once. Like-named read-outs stand apart in the source and are kept apart here. Where a SMILES comes first, the peptide text is derived from it.

System: cytochrome c
Assay type: cell-based, mouse
[1] = composite Z-score vs mock-treated (DMSO) wells, concentration of each compound in μM
[2] = normalized score (composite Z-score vs DMSO mock-treated wells), compound concentration (μM)

[H]/N=C(/N)N/C(=N/[H])NCCc1ccccc1 [phenformin]
cyt c: 0.241

N[C@@H](Cc1ccccc1)C(=O)N[C@@H](Cc1ccc(O)cc1)C(=O)O [phenylalanyltyrosine] (H-Phe-Tyr-OH)
cyt c [1]: −0.342

CC(N)C(O)c1ccccc1 (stereo not drawn) [phenylpropanolamine]
cyt c: 0.947

CCc1ccc(CCOc2ccc(CC3SC(=O)NC3=O)cc2)nc1 (stereo not drawn) [pioglitazone]
cyt c [1]: −0.742

CC[C@H](C)C(=O)O[C@H]1C[C@H](O)C=C2C=C[C@H](C)[C@H](CC[C@@H](O)C[C@@H](O)CC(=O)O)[C@H]21 [pravastatin, reference compound]
cyt c [1]: 0.972

CCC1(c2ccccc2)C(=O)NCNC1=O [primidone]
cyt c: 0.296 and 0.193

CCC(NC(C)C)C(O)c1ccc(O)c2[nH]c(=O)ccc12 (stereo not drawn) [procaterol]
cyt c [1]: −0.168

CCC(=O)c1ccc2c(c1)N(CC(C)N(C)C)c1ccccc1S2 (stereo not drawn) [propiomazine]
cyt c: −0.368

CC(C)c1cccc(C(C)C)c1O [propofol]
cyt c (composite Z-score vs DMSO): 0.242

CCCc1cc(=O)[nH]c(=S)[nH]1 [propylthiouracil]
cyt c: 0.762 and 0.717

CNCCCC1c2ccccc2C=Cc2ccccc21 [protriptyline]
cyt c (composite Z-score): −1.335

CC(O)Cn1cnc2c1c(=O)n(C)c(=O)n2C (stereo not drawn) [proxyphylline]
cyt c [1]: −0.574

CC(=O)SCC(Cc1ccccc1)C(=O)NCC(=O)OCc1ccccc1 (stereo not drawn) [racecadotril]
cyt c [1]: −0.249

O=C(NC(Cc1cc(=O)[nH]c2ccccc12)C(=O)O)c1ccc(Cl)cc1 (stereo not drawn) [rebamipide]
cyt c [1]: −0.372

NC(=O)c1ncn([C@@H]2O[C@H](CO)[C@@H](O)[C@H]2O)n1 [ribavirin]
cyt c: −0.336

CO[C@H]1/C=C/O[C@@]2(C)Oc3c(C)c(O)c4c(O)c(c(/C=N/N5CCN(C)CC5)c(O)c4c3C2=O)NC(=O)/C(C)=C\C=C\[C@H](C)[C@H](O)[C@@H](C)[C@@H](O)[C@@H](C)[C@H](OC(C)=O)[C@@H]1C [rifampicin]
cyt c: 0.319

CO[C@H]1/C=C/O[C@@]2(C)Oc3c(C)c(O)c4c(O)c(c5c(nc6cc(C)ccn65)c4c3C2=O)NC(=O)/C(C)=C\C=C\[C@H](C)[C@H](O)[C@@H](C)[C@@H](O)[C@@H](C)[C@H](OC(C)=O)[C@@H]1C [rifaximin]
cyt c [1]: −0.471

Cc1nc2n(c(=O)c1CCN1CCC(c3noc4cc(F)ccc34)CC1)CCCC2 [risperidone]
cyt c (composite Z-score vs DMSO): 0.243

CC(NCCc1ccc(O)cc1)C(O)c1ccc(O)cc1 (stereo not drawn) [ritodrine]
cyt c [1]: −0.072

CN(CCOc1ccc(CC2SC(=O)NC2=O)cc1)c1ccccn1 (stereo not drawn) [rosiglitazone]
cyt c: −0.121

C[C@@H]1O[C@@H](OC[C@H]2O[C@@H](Oc3c(-c4ccc(O)c(O)c4)oc4cc(O)cc(O)c4c3=O)[C@H](O)[C@@H](O)[C@@H]2O)[C@H](O)[C@H](O)[C@H]1O [rutoside]
cyt c [1]: −0.012

O=C1NS(=O)(=O)c2ccccc21 [saccharin]
cyt c (composite Z-score vs DMSO): 0.336

O=C(O)c1cn(-c2ccc(F)cc2)c2cc(N3CCNCC3)c(F)cc2c1=O [sarafloxacin]
cyt c [1]: 0.290

O=C1C=C2C=C[C@@H]3C[C@@]2(O1)[C@H]1CCCCN31 [securinine]
cyt c [1]: −0.481

CO[C@H]1C[C@H](O[C@@H]2/C(C)=C/C[C@@H]3C[C@@H](C[C@]4(CC[C@H](C)[C@@H](C5CCCCC5)O4)O3)OC(=O)[C@@H]3C=C(C)/C(=N/O)[C@H]4OC/C(=C\C=C\[C@@H]2C)[C@]43O)O[C@@H](C)[C@@H]1O [selamectin]
cyt c: 0.343

CC(C)CC(N(C)C)C1(c2ccc(Cl)cc2)CCC1 (stereo not drawn) [sibutramine]
cyt c [1]: 0.351

COc1cc(C2Oc3cc([C@H]4Oc5cc(O)cc(O)c5C(=O)[C@@H]4O)ccc3OC2CO)ccc1O (stereo partly drawn) [silybin]
cyt c: 0.150

O=C([O-])c1ccccc1O.[Na+] [sodium salicylate]
cyt c: 0.607

CC(C)NCC(O)c1ccc(NS(C)(=O)=O)cc1 (stereo not drawn) [sotalol]
cyt c [1]: 0.501

O=C1C[C@@H]2OCC=C3CN4CC[C@]56c7ccccc7N1[C@H]5[C@H]2[C@H]3C[C@H]46 [strychnine]
cyt c (composite Z-score vs DMSO mock-treated wells): 0.031

CCOC(=O)Oc1c(OC)cc(C(=O)O[C@@H]2C[C@@H]3CN4CCc5c([nH]c6cc(OC)ccc56)[C@H]4C[C@@H]3[C@H](C(=O)OC)[C@H]2OC)cc1OC [syrosingopine]
cyt c [2]: 1.051

Nc1c2c(nc3ccccc13)CCCC2 [tacrine]
cyt c (composite Z-score vs DMSO): −0.250

CC[C@H]1OC(=O)[C@H](C)C(=O)[C@H](C)[C@@H](O[C@@H]2O[C@H](C)C[C@H](N(C)C)[C@H]2O)[C@](C)(OC)C[C@@H](C)C(=O)[C@H](C)[C@H]2N(CCCCn3cnc(-c4cccnc4)c3)C(=O)O[C@]12C [telithromycin]
cyt c [1]: −0.023

CCCc1nc2c(C)cc(-c3nc4ccccc4n3C)cc2n1Cc1ccc(-c2ccccc2C(=O)O)cc1 [telmisartan]
cyt c [1]: −0.044

COc1cc2nc(N3CCN(C(=O)C4CCCO4)CC3)nc(N)c2cc1OC (stereo not drawn) [terazosin]
cyt c (composite Z-score vs DMSO): −0.258

CC(C)N1CCN(c2ccc(OCC3COC(Cn4cncn4)(c4ccc(Cl)cc4Cl)O3)cc2)CC1 (stereo not drawn) [terconazole]
cyt c [1]: 0.552

CC(C)(C)c1ccc(C(O)CCCN2CCC(C(O)(c3ccccc3)c3ccccc3)CC2)cc1 (stereo not drawn) [terfenadine]
cyt c (composite Z-score vs DMSO): −0.611

C[C@]12CC[C@H]3[C@@H](CCC4=CC(=O)CC[C@@]43C)[C@@H]1CC[C@@H]2O [testosterone]
cyt c: −0.787

COC(=O)C1=CO[C@@H](C)[C@@H]2CN3CCc4c([nH]c5ccccc45)[C@@H]3C[C@H]12 [tetrahydroalstonine]
cyt c [1]: 1.439

c1ccc(C2CN3CCSC3=N2)cc1 (stereo not drawn) [tetramisole]
cyt c: 0.209

Cc1ncc(C[n+]2csc(CCO)c2C)c(N)n1 [thiamine]
cyt c (composite Z-score): 0.284

COc1c(O[C@@H]2O[C@H](CO)[C@@H](O)[C@H](O)[C@H]2O)cc2c(c1OC)-c1ccc(SC)c(=O)cc1[C@@H](NC(C)=O)CC2 [thiocolchicoside]
cyt c [1]: 0.108

Nc1nc2nc[nH]c2c(=S)[nH]1 [thioguanine]
cyt c (composite Z-score vs DMSO): −1.454

CCCC(C)C1(CC)C(=O)NC(=S)NC1=O (stereo not drawn) [thiopental]
cyt c (composite Z-score vs DMSO): −0.299

C=C(NC(=O)C(=C)NC(=O)c1csc(C2=N[C@@H]3c4csc(n4)[C@H]4NC(=O)c5csc(n5)[C@H]([C@](C)(O)[C@@H](C)O)NC(=O)[C@H]5CSC(=N5)/C(=C/C)NC(=O)[C@H]([C@@H](C)O)NC(=O)c5csc(n5)[C@]3(CC2)NC(=O)[C@H](C)NC(=O)C(=C)NC(=O)[C@H](C)NC(=O)[C@H]([C@@H](C)CC)N[C@@H]2C=Cc3c([C@H](C)O)cc(nc3[C@H]2O)C(=O)O[C@@H]4C)n1)C(N)=O [thiostrepton]
cyt c [1]: −1.134

CN1CCN(CC/C=C2/c3ccccc3Sc3ccc(S(=O)(=O)N(C)C)cc32)CC1 [thiothixene]
cyt c: 0.307

CC(C(=O)O)c1ccc(C(=O)c2ccccc2)s1 (stereo not drawn) [tiaprofenic acid]
cyt c [2]: 0.644

Clc1ccccc1CN1CCc2sccc2C1 [ticlopidine]
cyt c (composite Z-score vs DMSO): −0.316

Cc1ccc(O)c([C@H](CCN(C(C)C)C(C)C)c2ccccc2)c1 [tolterodine]
cyt c: −0.406

CC1(C)O[C@@H]2[C@@H](CO[C@@]3(COS(N)(=O)=O)OC(C)(C)O[C@@H]23)O1 [topiramate]
cyt c [1]: −0.093

CCOC(=O)[C@H](CCc1ccccc1)N[C@@H](C)C(=O)N1[C@H](C(=O)O)C[C@H]2CCCC[C@@H]21 [trandolapril]
cyt c: 0.039
